Measurements from patent US7375103B2, “Optically active pyridine derivative and a medicament containing the same” (Bayer HealthCare AG, priority 2002, dated 2008).

Tests used:
[1] = system: LPS-induced TNF-α production; experiment: Rat LPS-induced TNF-α production; assay type: in vivo, Wistar female rats; details: in Rat
Method: [Rat LPS-Induced TNF-α Production]
Seven weeks old Wistar female rats were used. One mg of LPS (lypopolysaccharide) dissolved in phosphate buffer saline (pH 7.4) was administered intraperitoneally (i.p.) to rats. Compounds were given orally 60 minutes prior to the LPS injection. Under anesthesia with pentobarbital (80 mg/kg, i.p.), blood was collected from the posterior venous cavity of the rats 120 minutes post-LPS injection and added into 96-well plate containing 2% EDTA solution. The plasma was separated by centrifugation at 1800 rpm for 10 minutes at 4° C. and then diluted with four times volumes of phosphate buffer saline (H 7.4) containing 1% bovine serum albumin. TNF-α concentration in the sample was determined using an ELISA kit (Endogen, Boston, Mass.).
The mean TNF-α level in 7-8 rats from each group was determined and the percent reduction in TNF-α levels was calculated.

[2] = cellular assays (not further specified); assay type: cell-based
Method: [The Measurement of RANTES Production in Response to TNF-α from A549 cells]
(1) Preparation of A549 Cells
• The A549 human lung epithelium cell line (ATCC […]) was maintained in Dulbecco's modified Eagle's medium (D-MEM, Nikken Biomedical Institute) supplemented with 10% FCS (Gibco), 100 U/ml penicillin, 100 μg/ml streptomycin, and 2 mM glutamine (culture medium). Forty thousand (4×10^4) cells (80 μl/well) were seeded in each well of 96 well flat-bottom tissue culture plate (Falcon #3072). The plate was allowed to stand for 2 hrs, thus the cells were adhered to the bottom of each well. To the each well was added 10 μl vehicle (1% DMSO), serial dilutions of test compounds in 1% DMSO, or 5 nM Dexamethasone in 1% DMSO as a reference. The mixture (90 μl/well) was incubated for 1 hr at 37° C. After 1 hr, 1 μg/ml TNF-α (10 μl) in culture medium was added to the mixture to obtain 100 μl of reaction mixture. The reaction mixture was cultured for 24 hrs to stimulate the cells with 100 ng/ml TNF-α. […] (2) Measurement of RANTES Production • Then the concentration of RANTES released from the cells in the supernatants of each well was determined using a quantitative sandwich enzyme immunoassay technique. […] Fluorescent intensity was measured using a DELFIA fluorimeter (Wallac). Excitation was performed at 340 nm and emission was measured at 615 nm. […]

## O=C1Nc2nc(-c3c(O)cccc3OCC3CC3)cc([C@@H]3CCCNC3)c2CO1 [the compound of the present invention, (−)-7-[2-(cyclopropylmethoxy)-6-hydroxy-phenyl]-5-[(3S)-3-piperidinyl]-1,4-hydro-2H-pyrido [2,3-d][1,3]oxazin-2-one]
[1]
  anti-inflammatory activity compared with corresponding racemic modification: twice as strong as corresponding racemic modification
Ames-Test Screening
  mutagenicity according to the Ames-Test Screening: non-mutagenic
[2]
  cellular activity compared with corresponding racemic modification: twice as strong as corresponding racemic modification
